This data set deals with S180 tumor cells (mouse sarcoma). To be noted: mice sarcoma S180, stomach lavage, 0.3 ml/10 g body weight/day×10. The source says: The mice inoculated by S180 tumor cells (mouse sarcoma) were used as model animals.
In the meantime, non-inoculated mice were feed and used as the native control group.

Consider `O=P1(N(CCCl)CCCl)NCCCO1` (centres unmarked) [cyclophosphamide], for which the “Mice body (GPT)” value came out at 39.2 ± 5.69 and the “Weight of Tumor (g) (X ± SD)” value worked out at 0.614 ± 0.268 g.

Values taken from patent US9901602B2, “Ejaculum of animals as medicinal material and uses thereof in medicaments for treatment of diseases such as tumors, depression, etc” (Hui CHENG, priority 2008, dated 2018).
